Experimental data published in patent publication US5631401A, “Inhibitors of protein farnesyltransferase and squalene synthase” (Abbott Laboratories, priority 1995, dated 1997).

target: T1, Rat brain protein farnesyltransferase (Rattus norvegicus, UniProt Q02293+Q04631); assay: In vitro inhibition of protein farnesyltransferase (biotin-lamin substrate, scintillation proximity assay); assay type: biochemical; conditions: 1 μM (footnote *); read-out: % Inhibition at 1 μM (protein farnesyltransferase, values marked *)
T1 construct: The enzyme was purified according to Reiss, Y., et al., Cell, 62: 81-88 (1990), utilizing steps one through three; from tissue; host or cells: rat brain
Procedure: In vitro inhibition of protein farnesyltransferase may be measured by the following procedure. (Procedures for determination of the inhibition of farnesylation of the oncogene protein Ras are described by Goldstein, et al., J. Biol. Chem., 266: 15575-15578 (1991) and by Singh in U.S. Pat. No. 5,245,061 both of which are incorporated herein by reference.)
Rat brain protein farnesyltransferase activity was measured using the biotin-lamin substrate (which is known to undergo farnesylation in a manner analogous to Ras protein) and radioactive farnesyl diphosphate provided by Amersham Life Science in their commercial scintillation proximity assay kit for the determination of farnesyltransferase. The enzyme was purified according to Reiss, Y., et al., Cell, 62: 81-88 (1990), utilizing steps one through three. The specific activity of the enzyme was approximately 10 nmol substrate farnesylated/mg enzyme/hour. […]

Compound | inhibition at 1 µM [%]
CCCN(Cc1ccc(Oc2nccs2)cc1)C(=O)C1C(C(=O)O)C(C(=O)N(CCC)Cc2ccc(Oc3nccs3)cc2)C1C(=O)O (stereo not drawn) [Example 55] | 22
CC(=O)OC(CCCN(Cc1ccccc1)C(=O)C1C(C(=O)O)C(C(=O)N(CCCC(OC(C)=O)C(C)Cc2ccccc2)Cc2ccccc2)C1C(=O)O)C(C)Cc1ccccc1 (stereo not drawn) [Example 84, (1α,2β,3β,4α)-1,3-Di [N-benzyl-N-{syn-(4-acetoxy-5-methyl) -6-phenylhexyl}aminocarbonyl]cyclobutane-2,4-dicarboxylic acid] | 93
O=C(O)CN(Cc1ccc(Oc2ccccc2)cc1)C(=O)C1C(C(=O)O)C(C(=O)N(CC(=O)O)Cc2ccc(Oc3ccccc3)cc2)C1C(=O)O (stereo not drawn) [Example 43, (1α,2β,3β,4α)-1,3-Di[N-carboxymethyl-N-(4-phenoxybenzyl)aminocarbonyl]cyclobutane-2,4-dicarboxylic acid] | 54

Results, then the compound that gave them:

inhibition at 1 µM [%] | Compound
71 | C[C@H](c1cccc2ccccc12)N(Cc1ccc(Oc2ccccc2)cc1)C(=O)[C@H]1[C@H](C(=O)O)[C@H](C(=O)N(Cc2ccc(Oc3ccccc3)cc2)[C@H](C)c2cccc3ccccc23)[C@H]1C(=O)O [Example 96, (1α,2β,3β,4α)-1,3-Di[N-((2R)-2-(1-naphthyl)eth-2-yl) -N-(4-phenoxybenzyl)aminocarbonyl]cyclobutane-2,4-dicarboxylic acid]
45 | O=C(O)[C@H]1[C@H](C(=O)N2CC=C(c3ccc(Oc4ccccc4)cc3)CC2)[C@H](C(=O)O)[C@H]1C(=O)N1CC=C(c2ccc(Oc3ccccc3)cc2)CC1 [Example 92, (1α,2α,3β,4β)-1,3-Di[4-(4-phenoxyphenyl)-1,2,3,6-tetrahydropyridin-1-ylcarbonyl]cyclobutane-2,4-dicarboxylic acid]
58 | C[C@H](CCCc1ccccc1)CN(Cc1ccccc1)C(=O)[C@H]1[C@H](C(=O)O)[C@H](C(=O)N(Cc2ccccc2)C[C@H](C)CCCc2ccccc2)[C@H]1C(=O)O [Example 85, (1α,2β,3β,4α)-1,3-Di[N-benzyl-N-((2R)-5-phenyl-2-methylpentyl)aminocarbonyl]cyclobutane-2,4-dicarboxylic acid]
22 | O=C(O)[C@H]1[C@H](C(=O)N(CCO)Cc2ccc(Oc3ccccc3)cc2)[C@H](C(=O)O)[C@H]1C(=O)N(CCO)Cc1ccc(Oc2ccccc2)cc1 [Example 74, (1α,2β,3β,4α)-1,3-Di[N-(2-hydroxyethyl)-N-(4-phenoxybenzyl)aminocarbonyl]cyclobutane-2,4-dicarboxylic acid]
61 | C[C@H](C/C=C/c1ccccc1)CN(Cc1ccccc1)C(=O)[C@H]1[C@H](C(=O)O)[C@H](C(=O)N(Cc2ccccc2)C[C@H](C)C/C=C/c2ccccc2)[C@H]1C(=O)O [Example 86, (1α,2β,3β,4α)-1,3-Di [N-benzyl-N-{(E)-(2R)-2-methyl-5-phenyl-4-pentenyl}aminocarbonyl]cyclobutane-2,4-dicarboxylic acid]
62 | O=C(O)[C@H]1[C@H](C(=O)N(Cc2ccc(Oc3ccccc3)cc2)Cc2ccc3ccccc3c2)[C@H](C(=O)O)[C@H]1C(=O)N(Cc1ccc(Oc2ccccc2)cc1)Cc1ccc2ccccc2c1 [Example 81, (1α,2β,3β,4α)-1,3-Di [N-(4-phenoxybenzyl)-N-(2-methylnaphthyl)aminocarbonyl]cyclobutane-2,4-dicarboxylic acid]
52 | CCCN(Cc1ccc(COc2ccccc2)cc1)C(=O)C1C(C(=O)O)C(C(=O)N(CCC)Cc2ccc(COc3ccccc3)cc2)C1C(=O)O (stereo not drawn) [Example 65, (1α,2β,3β,4α)-1,3-Di[N-propyl-N-(4-phenoxymethylbenzyl)aminocarbonyl]-2,4-cyclobutanedicarboxylic acid]
21 | CCCN(C[C@H](C)CCCc1ccccc1)C(=O)[C@H]1[C@H](C(=O)O)[C@H](C(=O)N(CCC)C[C@H](C)CCCc2ccccc2)[C@H]1C(=O)O [Example 82, (1α,2β,3β,4α)-1,3-Di [N-((2R)-2-methyl-5-phenylpentyl)-N-(n-propyl)aminocarbonyl]cyclobutane-2,4-dicarboxylic acid]
66 | C[C@H](c1ccccc1)N(Cc1ccc(Oc2ccccc2)cc1)C(=O)[C@H]1[C@H](C(=O)O)[C@H](C(=O)N(Cc2ccc(Oc3ccccc3)cc2)[C@H](C)c2ccccc2)[C@H]1C(=O)O [Example 90]

same assay, conditions: 10 μM; compared to uninhibited control

Compound | inhibition at 10 µM [%]
CCCN(Cc1ccc(Cn2cccc2)cc1)C(=O)C1C(C(=O)O)C(C(=O)N(CCC)Cc2ccc(Cn3cccc3)cc2)C1C(=O)O (stereo not drawn) [Example 56, (1α,2β,3β,4α)-1,3-Di[N-propyl-N-(4-(pyrrol-1-ylmethyl)benzyl)aminocarbonyl]cyclobutane-2,4-dicarboxylic acid] | 78
CCCN(CCCCCc1ccccc1)C(=O)[C@H]1[C@H](C(=O)O)[C@H](C(=O)N(CCC)CCCCCc2ccccc2)[C@H]1C(=O)O [Example 38, (1α,2β,3β,4α)-1,3-Di[N-propyl-N-(5-phenylpentyl)aminocarbonyl]cyclobutane-2,4-dicarboxylic acid] | 85
CCCN(CC#CCc1ccccc1)C(=O)[C@H]1[C@H](C(=O)O)[C@H](C(=O)N(CC#CCc2ccccc2)CCC)[C@H]1C(=O)O [Example 61, (1α,2β,3β,4α)-1,3-Di{N-propyl-N-(4-phenylbut-2-yn-1-yl)aminocarbonyl}cyclobutane-2,4-dicarboxylic acid] | 73
CCCN(Cc1ccc(Oc2ccccc2C)cc1)C(=O)C1C(C(=O)O)C(C(=O)N(CCC)Cc2ccc(Oc3ccccc3C)cc2)C1C(=O)O (stereo not drawn) [Example 50, (1α,2β,3β,4α)-1,3-Di[N-propyl-N-(4-(2-methylphenoxy)benzyl)aminocarbonyl]cyclobutane-2,4-dicarboxylic acid] | 35
CCCN(CCCCOc1ccccc1)C(=O)[C@H]1[C@H](C(=O)O)[C@H](C(=O)N(CCC)CCCCOc2ccccc2)[C@H]1C(=O)O [Example 39, (1α,2β,3β,4α)-1,3-Di[N-propyl-N-(4-phenoxybutyl)aminocarbonyl]cyclobutane-2,4-dicarboxylic acid] | 66
CCCN(Cc1ccc(OC2CCCCC2)cc1)C(=O)[C@H]1[C@H](C(=O)O)[C@H](C(=O)N(CCC)Cc2ccc(OC3CCCCC3)cc2)[C@H]1C(=O)O [Example 37, (1α,2β,3β,4α)-1,3-Di[N-propyl-N-(4-cyclohexyloxybenzyl)aminocarbonyl]cyclobutane-2,4-dicarboxylic acid] | 22
O=C(O)[C@H]1[C@H](C(=O)OCc2ccc(Oc3ccccc3)cc2)[C@H](C(=O)O)[C@H]1C(=O)OCc1ccc(Oc2ccccc2)cc1 [Example 36, (1α,2β,3β,4α)-1,3-Di[4-phenoxybenzyloxycarbonyl]cyclobutane-2,4-dicarboxylic acid] | 24
CCCN(Cc1ccc(Nc2ccccc2)cc1)C(=O)C1C(C(=O)O)C(C(=O)N(CCC)Cc2ccc(Nc3ccccc3)cc2)C1C(=O)O (stereo not drawn) [Example 62, (1α,2β,3β,4α)-1,3-Di[N-propyl-N-(4-phenylaminobenzyl)aminocarbonyl]cyclobutane-2,4-dicarboxylic acid] | 69
CCCN(Cc1ccc(Oc2ccccc2)cc1)C(=O)C1C(C(=O)O)C(C(=O)N(CCC)Cc2ccc(Oc3ccccc3)cc2)C1C(=O)O (stereo not drawn) [Example 47, (1α,2β,3β,4α)-1,3-Di[N-propyl-N-(4-phenoxybenzyl)aminocarbonyl]cyclobutane-2,4-dicarboxylic acid] | 50
COc1ccc2c(c1)CCN(C(=O)C1C(C(=O)O)C(C(=O)N3CCc4cc(OC)ccc4C3)C1C(=O)O)C2 (stereo not drawn) [Example 49, (1α,2β,3β,4α)-1,3-Di[6-methoxy-1,2,3,4-tetrahydroisoquinolin-2-ylcarbonyl]cyclobutane-2,4-dicarboxylic acid] | 23
CCCN(Cc1ccc(Oc2ccccc2)o1)C(=O)C1C(C(=O)O)C(C(=O)N(CCC)Cc2ccc(Oc3ccccc3)o2)C1C(=O)O (stereo not drawn) [Example 52, (1α,2β,3β,4α)-1,3-Di[N-propyl-N-(5-phenoxyfurfuryl)aminocarbonyl]cyclobutane-2,4-dicarboxylic acid] | 51
CCCN(Cc1ccc(Oc2ccc3c(c2)OCO3)cc1)C(=O)C1C(C(=O)O)C(C(=O)N(CCC)Cc2ccc(Oc3ccc4c(c3)OCO4)cc2)C1C(=O)O (stereo not drawn) [Example 48, (1α,2β,3β,4α)-1,3-Di[N-propyl-N-(4-(3,4-methylenedioxyphenoxy)benzyl)aminocarbonyl]cyclobutane-2,4-dicarboxylic acid] | 61

Results, then the compound that gave them:

inhibition at 10 µM [%] | Compound
55 | O=C(O)[C@H]1[C@H](C(=O)N(Cc2ccc(Oc3ccccc3)cc2)Cc2ccc3oc4ccccc4c3c2)[C@H](C(=O)O)[C@H]1C(=O)N(Cc1ccc(Oc2ccccc2)cc1)Cc1ccc2oc3ccccc3c2c1 [Example 95, (1α,2β,3β,4α)-1,3-Di[N-(dibenzofuran-2-ylmethyl)-N-(4-phenoxybenzyl)aminocarbonyl]cyclobutane-2,4-dicarboxylic acid]
88 | CCCN(C(=O)C1C(C(=O)O)C(C(=O)N(CCC)c2ccc(Oc3ccccc3)cc2)C1C(=O)O)c1ccc(Oc2ccccc2)cc1 (stereo not drawn) [Example 66, (1α,2β,3β,4α)-1,3-Di[N-propyl-N-(4-phenoxyphenyl)aminocarbonyl]cyclobutane-2,4-dicarboxylic acid]
37 | O=C(O)[C@H]1[C@H](C(=O)N2CCCC(c3ccccc3)C2)[C@H](C(=O)O)[C@H]1C(=O)N1CCCC(c2ccccc2)C1 (relative stereo) [Example 83, (1α,2β,3β,4α)-1,3-Di [(3-phenylpiperidin-1-yl)carbonyl]cyclobutane-2,4-dicarboxylic acid]
